The subject of the first data set is A549 cells. The data set can be described thus: Growth inhibition (GI50) side-by-side in regular RPMI versus BME medium. Format: cell-based. The note with it: A549 cells treated for 72 hours. The procedure: FIGS. 9A-9F are graphs depicting the effect of various cytotoxic agents on A549 cell growth in BME.
Cells grown in BME media are not generally more sensitive to cytotoxic agents (FIGS. 9A-9F). A549 cells were grown in RPMI (FIG. 9A, 9B or 9C) or in BME (FIGS. 9D, 9E, and 9F). […] The effect of the PKM2 activators appears to by cytostatic (no induction of apoptosis).
Sequence of PKM2 (P14618 whole entry): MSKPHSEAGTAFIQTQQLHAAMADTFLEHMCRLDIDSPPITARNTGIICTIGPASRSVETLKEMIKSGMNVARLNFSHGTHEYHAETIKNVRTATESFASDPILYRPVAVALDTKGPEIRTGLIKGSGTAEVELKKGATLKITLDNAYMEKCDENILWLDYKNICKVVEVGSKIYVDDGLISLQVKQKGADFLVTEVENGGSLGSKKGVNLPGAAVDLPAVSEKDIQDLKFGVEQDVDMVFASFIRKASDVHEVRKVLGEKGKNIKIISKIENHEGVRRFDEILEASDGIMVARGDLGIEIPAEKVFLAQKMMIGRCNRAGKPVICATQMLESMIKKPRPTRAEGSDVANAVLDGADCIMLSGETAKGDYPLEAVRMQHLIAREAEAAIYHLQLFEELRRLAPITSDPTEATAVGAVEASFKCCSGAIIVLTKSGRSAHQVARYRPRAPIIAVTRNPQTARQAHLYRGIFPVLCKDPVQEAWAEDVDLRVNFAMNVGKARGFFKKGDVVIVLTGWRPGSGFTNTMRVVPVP
As to `COc1cccc2c1C(=O)c1c(O)c3c(c(O)c1C2=O)C[C@@](O)(C(=O)CO)C[C@@H]3O[C@H]1C[C@H](N)[C@H](O)[C@H](C)O1` [doxorubicin], the “potency of cytotoxic agent in BME compared with RPMI” value is “decreased potency”.
Same read-out and setting: the value for `CC[C@]1(O)C[C@@H]2CN(CCc3c([nH]c4ccccc34)[C@@](C(=O)OC)(c3cc4c(cc3OC)N(C)[C@H]3[C@@](O)(C(=O)OC)[C@H](OC(C)=O)[C@]5(CC)C=CCN6CC[C@]43[C@@H]65)C2)C1` [vinblastine] was “decreased potency”; that for `CC(=O)O[C@@]12CO[C@@H]1C[C@H](O)[C@@]1(C)C(=O)[C@H](O)C3=C(C)[C@@H](OC(=O)[C@H](O)[C@@H](NC(=O)OC(C)(C)C)c4ccccc4)C[C@@](O)([C@@H](OC(=O)c4ccccc4)[C@H]21)C3(C)C` [docetaxel] was “decreased potency”.

Another data set addresses PKM2 (Homo sapiens, UniProt P14618). In words: PKM2 Assay Procedure (LDH/NADH-coupled, absorbance at 340 nm). To be noted: Table 1; PKM2 activation. Format: biochemical. As to the method:
B refers to an activator of PKM2 with an AC50 between 100 nM and 500 nM. C refers to an activator of PKM2 with an AC50 greater than 500 nM. AC50s described here in Tables 1 and 2 and FIGS. 1 and 2A-2D are measured according to the “PKM2 Assay Procedure” below.
• PKM2 stock enzyme solution was diluted in Reaction Buffer • 2 μL of compound was added into each well first, and then 180 μL of the Reaction Mix was added. • Reaction mixture with compound (without ADP) were incubated for 30 minutes at 4° C. • Plates were re-equilibrated to room temperature prior to adding 20 μL ADP to initiate the reaction. • Reaction progress was measured as changes in absorbance at 340 nm wavelength at room temperature (25° C.)
In general, AC50 refers to the concentration at which the activity in the assay is half-maximal. Low readings indicate activity at low concentration, high ones activity only at high concentration. On to `Cc1cc2oc(=O)n(C)c2cc1S(=O)(=O)Nc1cccc(Cl)c1`, for which the concentration at half-maximal activity (AC50) lay in the range of 100 to 500 nM.
Turning to `O=S(=O)(Nc1cc(F)cc(F)c1)c1cccn1-c1ncc(C(F)(F)F)cc1Cl`, the AC50 was greater than 500 nM.
The same measure, in the same setting: for `Cc1cc(NS(=O)(=O)c2cnn(-c3cnccn3)c2)ccc1F` the value was 100 to 500 nM; for `O=S(=O)(Nc1ccc2c(c1)OCCO2)c1cncn1-c1ccc(C(F)(F)F)cn1`, greater than 500 nM.
With `Cc1cc2oc(=O)n(C)c2cc1S(=O)(=O)Nc1ccc(F)c(Cl)c1`, the concentration at half-maximal activity (AC50) was less than 100 nM.
Same read-out and setting: the value for `Nc1cccc(S(=O)(=O)N2CCCN(S(=O)(=O)c3cccc4c3OCCO4)CC2)c1` was less than 100 nM; that for `O=C(c1ccc(NS(=O)(=O)c2ccc(Cl)cc2)cc1)N1CCN(c2ncccn2)CC1` was greater than 500 nM.
On the same count and under the same terms, the value for `O=C(c1ccc(NS(=O)(=O)c2cccc3cccnc23)cc1)N1CCN(Cc2cccc(Cl)c2)CC1` was less than 100 nM; that for `O=C(c1ccc(NS(=O)(=O)c2cccc3cccnc23)cc1)N1CCN(Cc2ccccc2Cl)CC1` was less than 100 nM.
Same read-out and setting: the value for `O=C(c1ccc(NS(=O)(=O)c2cccc3cccnc23)cc1)N1CCN(Cc2ccc(Br)cc2)CC1` was less than 100 nM; that for `Cc1cc2oc(=O)n(C)c2cc1S(=O)(=O)Nc1cc(F)cc(Cl)c1` was greater than 500 nM.
As to `O=C(c1ccc(NS(=O)(=O)c2cccc3cccnc23)cc1)N1CCN(Cc2ccccn2)CC1`, the AC50 is less than 100 nM.
The same measure, in the same setting: for `O=S(=O)(c1ccc2c(c1)OCCO2)N1CCN(S(=O)(=O)c2c(F)cccc2F)CC1` the value was less than 100 nM; for `O=S(=O)(Nc1ccc(F)c(Cl)c1)c1cncn1-c1cnccn1`, less than 100 nM; for `COc1ccccc1N1CCN(C(=O)c2ccc(NS(=O)(=O)c3ccc4ccccc4c3)cc2)CC1`, greater than 500 nM.
`Cc1cc(C)cc(NS(=O)(=O)c2ccnn2-c2ncc(C(F)(F)F)cc2Cl)c1`: the AC50 is less than 100 nM.
Same read-out and setting: the value for `Cn1c(=O)oc2cc(S(=O)(=O)Nc3cccc(Cl)c3)ccc21` was less than 100 nM; that for `O=S(=O)(Nc1ccc(Cl)cc1)c1cccn1-c1ncc(C(F)(F)F)cc1Cl` was less than 100 nM; that for `O=C(c1ccc(NS(=O)(=O)c2cccc3cccnc23)cc1)N1CCN(Cc2ccc(Cl)nc2)CC1` was less than 100 nM.
Still for that read-out and setting: for `Cc1cc2c(s1)c1cnn(Cc3ccccc3F)c(=O)c1n2C` the value was less than 100 nM.
`N#Cc1ccccc1CN1CCN(C(=O)c2ccc(NS(=O)(=O)c3cccc4cccnc34)cc2)CC1` came in with a concentration at half-maximal activity (AC50) of less than 100 nM.
As to `O=C(c1ccc(NS(=O)(=O)c2cccc3cccnc23)cc1)N1CCN(c2ccccc2)CC1`, the AC50 is less than 100 nM.
`COc1cccc(CN2CCN(C(=O)c3ccc(NS(=O)(=O)c4cccc5cccnc45)cc3)CC2)c1` displayed an AC50 of less than 100 nM.
The compound `Cc1cccc(NS(=O)(=O)c2cncn2-c2ncc(C(F)(F)F)cc2Cl)c1` registered an AC50 of less than 100 nM.
The same measure, in the same setting: for `O=C(c1ccc(NS(=O)(=O)c2cccc3cccnc23)cc1)N1CCN(Cc2ccc(Cl)cc2)CC1` the value was less than 100 nM.
Turning to `Cc1cc(C)cc(NS(=O)(=O)c2ccc3c(c2)oc(=O)n3C)c1`, the AC50 is less than 100 nM.
The same measure, in the same setting: for `N#Cc1cccc(CN2CCN(C(=O)c3ccc(NS(=O)(=O)c4cccc5cccnc45)cc3)CC2)c1` the value was less than 100 nM; for `O=S(=O)(Nc1ccc(F)cc1)c1cncn1-c1ccc(C(F)(F)F)cn1`, greater than 500 nM.
On the same count and under the same terms, the value for `O=C(COc1ccc(-n2cnnn2)cc1)N1CCN(S(=O)(=O)c2ccc3ccccc3c2)CC1` was 100 to 500 nM; that for `Cc1cc(C)cc(NS(=O)(=O)c2cncn2-c2ncc(C(F)(F)F)cc2Cl)c1` was less than 100 nM.
Turning to `O=C(c1ccc(NS(=O)(=O)c2cccc3cccnc23)cc1)N1CCN(Cc2ccc(F)cc2)CC1`, the concentration at half-maximal activity (AC50) is less than 100 nM.
As to `COc1ccccc1N1CCN(C(=O)c2ccc(NS(=O)(=O)c3ccc4c(c3)OCCO4)cc2)CC1`, the half-maximal activity concentration (AC50) is 100 to 500 nM.
Consider `CC(=O)c1ccc(CN2CCN(C(=O)c3ccc(NS(=O)(=O)c4cccc5cccnc45)cc3)CC2)cc1`, for which the AC50 lay in the range of 100 to 500 nM.
As for `COc1ccccc1N1CCCN(C(=O)c2ccc(NS(=O)(=O)c3cccc4cccnc34)cc2)CC1`, the AC50 is greater than 500 nM.
In the case of `O=S(=O)(Nc1ccccc1C(F)(F)F)c1cccn1-c1ncc(C(F)(F)F)cc1Cl`, the concentration at half-maximal activity (AC50) is greater than 500 nM.
On the same count and under the same terms, the value for `COc1ccccc1CN1CCN(C(=O)c2ccc(NS(=O)(=O)c3cccc4cccnc34)cc2)CC1` was less than 100 nM.
The same measure, in the same setting: the value for `Cc1cc(NS(=O)(=O)c2cccn2-c2ncc(C(F)(F)F)cc2Cl)ccc1F` was less than 100 nM.
Same read-out and setting: for `O=C(c1ccc(NS(=O)(=O)c2cccc3cccnc23)cc1)N1CCN(c2ncccn2)CC1` the value was 100 to 500 nM.
`CC(=O)c1ccccc1CN1CCN(C(=O)c2ccc(NS(=O)(=O)c3cccc4cccnc34)cc2)CC1`: the half-maximal activity concentration (AC50) is less than 100 nM.
Same read-out and setting: for `COc1ccccc1N1CCN(C(=O)c2ccc(NS(=O)(=O)c3cccc4cccnc34)nc2)CC1` the value was less than 100 nM.
On the same count and under the same terms, for `COc1ccccc1N1CCN(C(=O)c2ccc(NS(=O)(=O)c3ccc(Cl)c4nonc34)cc2)CC1` the value was greater than 500 nM; for `O=C(c1ccc(NS(=O)(=O)c2cccc3cccnc23)cc1)N1CCN(Cc2ccccc2)CC1`, less than 100 nM.
Still for that read-out and setting: for `COc1ccccc1N1CCN(C(=O)c2ccc(N(C)S(=O)(=O)c3cccc4cccnc34)cc2)CC1` the value was less than 100 nM; for `O=C(c1ccc(NS(=O)(=O)c2cccc3cccnc23)cc1)N1CCN(Cc2cccnc2Cl)CC1`, less than 100 nM.
`N#Cc1ccc(CN2CCN(C(=O)c3ccc(NS(=O)(=O)c4cccc5cccnc45)cc3)CC2)cc1` showed an AC50 of less than 100 nM.
Consider `Cc1cc(C)cc(NS(=O)(=O)c2cccn2-c2ncc(C(F)(F)F)cc2Cl)c1`, for which the half-maximal activity concentration (AC50) was less than 100 nM.
`Cc1cc(C)cc(NS(=O)(=O)c2cccn2-c2ncccn2)c1` had a half-maximal activity concentration (AC50) of less than 100 nM.
Turning to `COc1ccccc1N1CCN(C(=O)c2ccc(NS(=O)(=O)c3cccc4cccnc34)cc2)CC1`, the AC50 is less than 100 nM.
Same read-out and setting: for `O=S(=O)(Nc1ccc2c(c1)OCO2)c1cccn1-c1ncc(C(F)(F)F)cc1Cl` the value was less than 100 nM; for `O=S(=O)(Nc1ccc(Cl)cc1)c1cncn1-c1cnccn1`, greater than 500 nM.

The data set is the same for the next values; noted with them: Table 2; PKM2 activation.
For the compound `COc1ccc(Cl)cc1S(=O)(=O)Nc1ccc2sc(=O)n(C)c2c1`, the half-maximal activity concentration (AC50) lay in the range of 1000 to 10000 nM.
Compound `Cn1c(=O)oc2cc(NS(=O)(=O)c3cccs3)ccc21` showed a concentration at half-maximal activity (AC50) of 10000 to 50000 nM.
`COc1ccc(Cl)cc1S(=O)(=O)Nc1ccc2oc(=O)n(C)c2c1` [drawing 91] showed an AC50 of less than 1000 nM.
Still for that read-out and setting: for `Cc1ccc(OCC(=O)N2CCN(S(=O)(=O)c3cc4oc(=O)n(C)c4cc3C)CC2)cc1` the value was 1000 to 10000 nM; for `COc1ccc(Cl)cc1S(=O)(=O)Nc1ccc2oc(=O)n(C)c2c1` [drawing 74], greater than 100000 nM.

The record behind these values is patent US20170007608A1, “ACTIVATORS OF PYRUVATE KINASE M2 AND METHODS OF TREATING DISEASE” (AGIOS PHARMACEUTICALS, INC, priority 2011, published 2017).
